Measured values: article PMC7216583 (Parasites & Vectors, 2020)
Structures can show the parent of a compound that is named as a salt. Where two headings read alike, the source gives them in different places.

Legend:
[1] = test system: Toxoplasma gondii RH-2F tachyzoites; assay: microbe, parasite or virus in culture; conditions: 72 h
A375 cells = test system: A375 cells; design: method as in library vendor description; conditions: Hsp90 inhibitor; ref library vendor description; cited from earlier work
in vitro = conditions: human; for viability at 72 h: Host viability (%) mean
Aurora A = target: Aurora A; design: method as in library vendor description; conditions: ref library vendor description; cited from earlier work
[2] = test system: NS3/4A protease of hepatitis C virus (HCV); design: method as in library vendor description; conditions: ref library vendor description; cited from earlier work
T. gondii RH strain [3] = assay: Murine model of acute toxoplasmosis: survival; type: in vivo, BALB/c mice; conditions: 50 mg/kg oral once daily for 5 days, RH tachyzoites ip, 20-day observation, n = 10; vehicle 11.9 ± 0.74 days
Experimental: To evaluate the ability of the two compounds to protect against acute T. gondii infection in vivo, we used a BALB/c murine model and challenged the mice with the RH-2F strain of T. gondii. Mice were divided into 4 groups consisting of 15 mice each and injected intraperitoneally with 10^3 RH strains per animal. Compounds were dissolved in DMSO and diluted in PBS prior to feeding to mice. After 4 h of infection, mice were treated for 5 consecutive days with daily oral administration of the specified compound at 50 mg/kg (once a day). Mice treated with pyrimethamine (50 mg/kg) were used as a positive control, and 1 ml PBS containing 11 μl of DMSO was used as a negative control. Within each group, 5 mice were euthanized at 7 dpi for comparison of parasite burden, and 10 mice were part of a 20-day survival experiment. Mice were monitored as described previously and scored twice per day for signs of toxoplasmosis, such as impaired mobility, difficulty in feeding, weight loss, self-mutilation and severe ascites. […] At the end of the experimental period, all remaining mice were euthanized.

[4] = cited from earlier work
[5] = test system: human foreskin fibroblasts (HFFs); assay: In vitro drug efficacy: dose-response host cell viability by CCK8 (TD50); type: cell-based; conditions: uninfected HFFs, serial dilutions 0 to 100 μM, 72 h
Experimental: Each selected compound with an initial concentration of 100 μM in the culture medium was added to the first column of HFFs (~ 250 cells/well) in a 96-well half-area plate and then diluted serially across the plate by 2-fold dilutions, leaving the final column drug-free. […] Fifty tachyzoites were then added at a MOI of 1:5 to each well in six of the eight rows. After a 72 h incubation, CPRG was added, and the absorbance was measured at 570 nm. Meanwhile, to measure the effect of each compound on the viability of host cells, CCK8 reagent was added to the two rows of uninfected HFFs and absorbance at 450 nm was measured after 2 h. The assay was performed in triplicate and repeated three times.

GFP-TgAtg8 tachyzoites [6] = assay: Flow cytometric analysis of the parasite cell cycle (PI staining); type: cell-based, Toxoplasma gondii; conditions: 8 h with compound after PDTC synchronization
Experimental: Flow cytometric analyses were performed as described previously. Briefly, HFFs were infected with GFP-TgAtg8 tachyzoites at a MOI = 1. At 12 hpi, the cell cycle was synchronized by adding 80 μM pyrrolidine dithiocarbamate (PDTC, Sigma-Aldrich) and incubating at 37 °C and 5% CO2 for 8 h. After removing the PDTC, cells were incubated at 37 °C and 5% CO2 for 8 h in media containing the specified compound. The extracellular parasites were removed by washing with ice-cold PBS, and the intracellular tachyzoites were isolated by passage of host cells through a 27-gauge needle and purified with a 3 μm filter. The purified parasites were fixed with ice cold ethanol at − 20 °C for 24 h, and their DNA was stained by using propidium iodide (PI) solution (40 μg/ml PI, 360 μg/ml RNase A and 2% BSA in PBS) at 37 °C for 30 min in the dark. The stained parasites were filtered with a 5 μm pore filter and analysed on a FACSCanto™II flow cytometer (BD Biosciences, CA, USA). The results were analysed on an EPICS-XL flow cytometer (Beckman Coulter, CA, USA) by using SYSTEM II software (Beckman Coulter), and the percentages of the population in each phase of the cell cycle (G1, S, and G2 +M) were calculated. At least 10,000 events were collected per sample.

RH GFP-TgAtg8 parasites = assay: Invasion assay; conditions: pre-treated 8 h, GSK-J4 HCl 5 μM, invasion for 1 h
Kasumi-1 cells [7] = test system: Kasumi-1 cells; design: dose or concentration left out as unconfirmed; conditions: cited from earlier work
[8] = test system: Toxoplasma gondii RH-2F tachyzoites; assay: microbe, parasite or virus in culture; type: cell-based; conditions: 72 h, read-out: IC50 for parasite growth
Kasumi-1 cells [9] = conditions: in vitro; read-out: IC50 against Kasumi-1 cells; cited from earlier work
[10] = test system: RH GFP-TgAtg8 tachyzoites; assay: Intracellular proliferation assay; conditions: NVP-AEW541 […], GSK-J4 HCl 5 μM, 24 h after 2 h infection
GFP-TgAtg8 tachyzoites [11] = assay: Egress assay (A23187-induced); conditions: compound for 24 h, 3 μM A23187 for 5 min
OSA 8 cells = test system: OSA 8 cells; design: method as in library vendor description; conditions: HSP90 inhibitor; ref library vendor description; cited from earlier work
PANC1 cells = test system: PANC1 cells; design: method as in library vendor description; conditions: ref library vendor description; cited from earlier work
MIAPaCa2 cells = test system: MIAPaCa2 cells; design: method as in library vendor description; conditions: ref library vendor description; cited from earlier work
BxPC3 cells = test system: BxPC3 cells; design: method as in library vendor description; conditions: ref library vendor description; cited from earlier work
Capan2 cells = test system: Capan2 cells; design: method as in library vendor description; conditions: ref library vendor description; cited from earlier work
c-Raf-1Y340D/Y341D = test system: c-Raf-1Y340D/Y341D; design: method as in library vendor description; conditions: ref library vendor description; cited from earlier work
CDK9 = test system: CDK9; design: method as in library vendor description; conditions: ref library vendor description; cited from earlier work
EGFRL858R = test system: EGFRL858R; design: method as in library vendor description; conditions: ref library vendor description; cited from earlier work
EGFR(E746_A750) = test system: EGFR(E746_A750); design: method as in library vendor description; conditions: ref library vendor description; cited from earlier work
EGFRL858R/T790M = test system: EGFRL858R/T790M; design: method as in library vendor description; conditions: ref library vendor description; cited from earlier work
T. gondii RH strain [12] = assay: Murine model of acute toxoplasmosis: tissue parasite burden by B1 gene qPCR; type: in vivo, BALB/c mice; conditions: 7 dpi, 50 mg/kg oral for 5 days, n = 5, compared with vehicle control
Experimental: Meanwhile, the parasite burden in the brain, liver and spleen of infected mice was measured at 7 dpi as described previously. Briefly, whole organs were mixed in lysis buffer (50 mM Tris pH 8.0, 50 mM EDTA, 1% SDS, 50 mg/ml of proteinase K) and incubated overnight at 56 °C. Total genomic DNA from 25 mg of tissue in 100 μl of lysis buffer was then extracted using DNeasy Blood and Tissue Kit (Qiagen, Shanghai, China) following the manufacturer’s instructions. […]. Amplification was performed in a final volume of 20 μl using a ChamQ Universal SYBR qPCR Master Mix (Cat# Q711-02; Vazyme, Nanjing, China). Each reaction contained 10 μl of 2× ChamQ SYBR qPCR Master Mix, 1 μl of template DNA, 8.2 μl of distilled water and 0.4 μM each primer. The following amplification conditions were applied: 30 s at 95 °C; 40 cycles of 95 °C for 10 s, 60 °C for 30 s; and one cycle of 95 °C for 15 s, 60 °C for 1 min and 95 °C for 15 s. The number of parasites was calculated from the standard curve prepared in parallel.

[13] = Side effects / survival of uninfected healthy mice; type: in vivo, BALB/c mice; conditions: healthy mice treated with compound, data not shown
Experimental: All mice were purchased from the Laboratory Animal Center, Wenzhou Medical University, Zhejiang, China. They were bred and handled in strict accordance with the Good Animal Practice requirements of the Animal Ethics Procedures and Guidelines of China. In a preliminary experiment aiming to assess the side effects of compounds, female BALB/c mice (6–8 weeks old, ~20 g) were orally administered with each compound at 50 mg/kg for 5 days and were monitored for 30 days. There was no obvious clinical toxicity after treatment with all compounds during this time period.

[14] = test system: Toxoplasma gondii RH-2F tachyzoites; conditions: 5 μM compound, 72 h, RH-2F in HFFs; DMSO 0%, 10 μM pyrimethamine 100% inhibition
NWT-21 fibrosarcoma = conditions: dose of 50 mg/kg; cited from earlier work
[15] = test system: NWT-21 cells (NIH3T3 stably expressing the human IGF-IR); conditions: in vitro; read-out: IC50 against NWT-21 cells; cited from earlier work
[16] = test system: human foreskin fibroblasts (HFFs)
IGF-1R = test system: IGF-1R; design: method as in library vendor description; conditions: ref library vendor description; cited from earlier work
[17] = read-out: Parasite inhibition (%) mean, preliminary screen, mean

CC(C)c1cc(C(=O)N2Cc3ccc(CN4CCN(C)CC4)cc3C2)c(O)cc1O [AT13387]
inhibition of growth at 5 µM [1, 17]: -1.7%
IC50 (A375 cells): 18 nM

Cc1nc(N)sc1-c1ccnc(Nc2ccc(N3CCOCC3)cc2)n1 [CYC116]
viability at 72 h (in vitro): 60.6%
Ki (Aurora A): 8 nM
inhibition of growth at 5 µM [1, 17]: 71.7%

CC(C)(C)OC(=O)N[C@H]1CCCCC/C=C\[C@@H]2C[C@@]2(C(=O)NS(=O)(=O)C2CC2)NC(=O)[C@@H]2C[C@@H](OC(=O)N3Cc4cccc(F)c4C3)CN2C1=O [Danoprevir]
inhibition of growth at 5 µM [1, 17]: 0.9%
IC50 [2]: 0.2 to 3.5 nM

CCOC(=O)CCNc1cc(N2CCc3ccccc3CC2)nc(-c2ccccn2)n1 [GSK-J4 HCl]
survival time of infected mice (T. gondii RH strain [3]): 15.2 ± 1.69 days
viability at 72 h, 5 µM (in vitro; Host viability (%) Mean ± SD): 92.2 ± 3.8%
viability at 72 h (in vitro): 92.2%
toxicity in experimental mice ([4]; 50 mg/kg of body weight for 4–6 weeks): no apparent toxicity
TD50 against HFF (host cell) [5]: 34.6 µM
percentage of parasites in G1 phase (GFP-TgAtg8 tachyzoites [6]): 70.88%
percentage of parasites in G2 phase (GFP-TgAtg8 tachyzoites [6]): 0.00%
percentage of parasites in S phase (GFP-TgAtg8 tachyzoites [6]): 29.12%
inhibition at 5 µM ([1]; read-out: Parasite inhibition (%) Mean ± SD): 90.4 ± 1.4%
effect on ability of parasites to invade host cells (RH GFP-TgAtg8 parasites): not affected
leukemia infiltration in AML xenograft mouse model (Kasumi-1 cells [7]): decreased leukemia infiltration
IC50 ([8]; Toxoplasma gondii): 2370 nM
IC50 (Kasumi-1 cells [9]): 5520 nM
effect on Toxoplasma intracellular growth (tachyzoites per vacuole) [10]: significantly inhibited Toxoplasma intracellular growth
effect on Toxoplasma egress (GFP-TgAtg8 tachyzoites [11]): neither NVP-AEW541 nor GSK-J4 HCl inhibits Toxoplasma egress

CC(C)c1cc(-c2n[nH]c(=O)n2-c2ccc3c(ccn3C)c2)c(O)cc1O [Ganetespib (STA-9090)]
IC50 (OSA 8 cells): 4 nM
inhibition of growth at 5 µM [1, 17]: 5.1%

Nc1ccn([C@@H]2O[C@@H](CO)[C@@H](O)C2(F)F)c(=O)n1 [Gemcitabine HCl (Gemzar)]
IC50 (PANC1 cells): 50 nM
viability (in vitro): 16.8%
IC50 (MIAPaCa2 cells): 40 nM
IC50 (BxPC3 cells): 18 nM
inhibition of growth at 5 µM [1, 17]: 75.4%
IC50 (Capan2 cells): 12 nM

CCCS(=O)(=O)Nc1ccc(F)c(C(=O)c2c[nH]c3ncc(Cl)cc23)c1F [PLX-4720]
inhibition of growth at 5 µM [1, 17]: 0.2%
IC50 (c-Raf-1Y340D/Y341D): 6.7 nM

CC(C)(C)c1cnc(CSc2cnc(NC(=O)C3CCNCC3)s2)o1 [SNS-032 (BMS-387032)]
inhibition of growth at 5 µM [1, 17]: 9.9%

C=CC(=O)Nc1cccc(Oc2nc(Nc3ccc(N4CCN(C)CC4)cc3)ncc2Cl)c1 [WZ3146]
IC50 (EGFRL858R): 2 nM
inhibition of growth at 5 µM ([1]; read-out: Parasite inhibition (%) mean): -33.7%
IC50 (EGFR(E746_A750)): 2 nM

C=CC(=O)Nc1cccc(Oc2nc(Nc3ccc(N4CCN(C)CC4)cc3OC)ncc2Cl)c1 [WZ4002]
inhibition of growth at 5 µM [1, 17]: -5.9%

CCc1nc(N)nc(N)c1-c1ccc(Cl)cc1 [pyrimethamine, Pyrimethamine]
parasite burden in brain, liver and spleen (T. gondii RH strain [12]): lowest parasite burden in tissue
survival of healthy (uninfected) mice [13]: survived

NVP-AEW541
survival time of infected mice (T. gondii RH strain [3]): 14.6 ± 1.84 days
Parasite inhibition (%) Mean ± SD [14]: 91.5 ± 2.5%
anti-tumour activity in mouse model (NWT-21 fibrosarcoma): had anti-NWT-21 fibrosarcoma activity
toxicity in experimental mice ([4]; 50 mg/kg of body weight for 1–2 weeks): no apparent toxicity
TD50 against HFF (host cell) [5]: 7.3 µM
percentage of parasites in G1 phase (GFP-TgAtg8 tachyzoites [6]): 44.25%
percentage of parasites in G2 phase (GFP-TgAtg8 tachyzoites [6]): 8.30%
percentage of parasites in S phase (GFP-TgAtg8 tachyzoites [6]): 47.45%
IC50 [15]: 1640 nM
Host viability (%) mean [16]: 80.7%
Host viability (%) Mean ± SD ([16]; 5 µM): 80.7 ± 1.2%
IC50 ([8]; RH-2F-infected HFFs, serial dilutions 0 to 100 μM, β-Gal activity): 1170 nM
IC50 (IGF-1R): 86 nM
effect on Toxoplasma intracellular growth (tachyzoites per vacuole) [10]: not impaired
effect on Toxoplasma egress (GFP-TgAtg8 tachyzoites [11]): neither NVP-AEW541 nor GSK-J4 HCl inhibits Toxoplasma egress
